Results published in patent US20170121344A1 (Siga Technologies, Inc., priority 2009, published 2017).

system: Dengue-2 (Strain New Guinea C); assay: Viral yield assay against Dengue-2 in Vero cells; format: cell-based, Dengue virus; conditions: Dengue virus, DENV2; viral yield assay, Vero cells, MOI 0.1, 48 hours post infection; read-out: Activity (EC50 in μM) DENV-2
Method in brief: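 Vero cells were infected with dengue virus at an MOI of 0.1, treated with compound or DMSO vehicle, and kept at 37° C. Supernatant virus was harvested 48 hours post infection and titered on Vero cells, with EC50 derived from yield reduction.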

| Compound | EC50 [µM] |
| --- | --- |
| COc1ccc(-c2ccc3c(N)c(C(=O)Nc4ccc(F)cc4Cl)sc3n2)cc1OC [Compound 539, 3-amino-N-(2-chloro-4-fluoro-phenyl)-6-(3,4-dimethoxyphenyl)thieno[2,3-b] pyridine-2-carboxamide] | < 5 |
| COc1cccc(-c2ccc3c(N)c(C(=O)Nc4ccc(F)c(F)c4)sc3n2)c1 [Compound 525, 3-amino-N-(3,4-difluorophenyl)-6-(3-methoxyphenyl)thieno[2,3-b]pyridine-2-carboxamide] | < 5 |
| CCOc1ccccc1NC(=O)c1sc2nc(-c3cccc(OC)c3)ccc2c1N [Compound 501, 3-amino-N-(2-ethoxyphenyl)-6-(3-methoxyphenyl)thieno[2,3-b]pyridine-2-carboxamide] | < 5 |
| COc1ccc(NC(=O)c2sc3nc(-c4ccc(Cl)cc4)ccc3c2N)cc1 [Compound 527, 3-amino-6-(4-chlorophenyl)-N-(4-methoxyphenyl)thieno[2,3-b]pyridine-2-carboxamide] | < 5 |
| Nc1c(C(=O)Nc2ccc(F)c(Cl)c2)sc2nc(-c3ccc(F)cc3)ccc12 [Compound 613, 3-amino-N-(3-chloro-4-fluoro-phenyl)-6-(4-fluorophenyl)thieno[2,3-b]pyridine-2-carboxamide] | < 5 |
| COc1ccc(Cl)cc1NC(=O)c1sc2nc(-c3ccc(C)cc3)ccc2c1N [Compound 641, 3-amino-N-(5-chloro-2-methoxy-phenyl)-6-(p-tolyl)thieno[2,3-b]pyridine-2-carboxamide] | < 5 |
| CCCSc1nc2ccc(NC(=O)c3sc4nc(-c5cccc(OC)c5)ccc4c3N)cc2s1 [Compound 568, 3-amino-6-(3-methoxyphenyl)-N-(2-propylsulfanyl-1,3-benzothiazol-6-yl) thieno[2,3-b]pyridine-2-carboxamide] | < 5 |
| Nc1c(C(=O)Nc2ccc(Cl)cc2)sc2nc(-c3ccc4c(c3)OCO4)ccc12 [Compound 601, 3-amino-6-(1,3-benzodioxol-5-yl)-N-(4-chlorophenyl)thieno[2,3-b]pyridine-2-carboxamide] | < 5 |
| COc1cccc(-c2ccc3c(N)c(C(=O)Nc4cc(C(F)(F)F)ccc4OC)sc3n2)c1 [Compound 558, 3-amino-6-(3-methoxyphenyl)-N-[2-methoxy-5-(trifluoromethyl)phenyl] thieno[2,3-b]pyridine-2-carboxamide] | < 5 |
| O=C(Nc1ccccc1)c1sc2ncccc2c1OCc1ccc(Cl)c(Cl)c1 [Compound 379, 3-[(3,4-dichlorophenyl)methoxy]-N-phenyl-thieno[2,3-b]pyridine-2-carboxamide] | < 5 |
| Cc1c(Cl)cccc1NC(=O)c1sc2nc(-c3ccc(F)cc3)ccc2c1N [Compound 604, 3-amino-N-(3-chloro-2-methyl-phenyl)-6-(4-fluorophenyl)thieno[2,3-b]pyridine-2-carboxamide] | < 5 |
| COc1cccc(-c2ccc3c(N)c(C(=O)Nc4cc(OC)ccc4Cl)sc3n2)c1 [Compound 548, 3-amino-N-(2-chloro-5-methoxy-phenyl)-6-(3-methoxyphenyl)thieno[2,3-b] pyridine-2-carboxamide] | < 5 |
| Nc1c(C(=O)Nc2cc(Cl)cc(Cl)c2)sc2nc(-c3ccc(F)cc3)ccc12 [Compound 622, 3-amino-N-(3,5-dichlorophenyl)-6-(4-fluorophenyl)thieno[2,3-b]pyridine-2-carboxamide] | < 5 |
| COc1ccc(-c2ccc3c(N)c(C(=O)Nc4cccc(Cl)c4C)sc3n2)cc1OC [Compound 573, 3-amino-N-(3-chloro-2-methyl-phenyl)-6-(3,4-dimethoxyphenyl)thieno[2,3-b] pyridine-2-carboxamide] | < 5 |
| COc1ccc(-c2ccc3c(N)c(C(=O)Nc4ccc(Br)cc4)sc3n2)cc1OC [Compound 451, 3-amino-N-(4-bromophenyl)-6-(3,4-dimethoxyphenyl)thieno[2,3-b]pyridine-2-carboxamide] | < 5 |
| Nc1c(C(=O)Nc2cc(F)ccc2F)sc2nc(-c3cc(Cl)ccc3Cl)ccc12 [Compound 629, 3-amino-6-(2,5-dichlorophenyl)-N-(2,5-difluorophenyl)thieno[2,3-b]pyridine-2-carboxamide] | < 5 |

same assay, conditions: Dengue virus, Vero, 48 h, read-out: Activity (EC50 class) against Dengue-2 Virus in Vero cells

| Compound | EC50 [µM] |
| --- | --- |
| COCc1cc(C)nc2sc(C(=O)Nc3ccc(C(=O)OC)cc3)c(N)c12 [Compound 239, 4-[(3-Amino-4-methoxymethyl-6-methyl-thieno[2,3-b]pyridine-2-carbonyl)-amino]-benzoic acid methyl ester] | > 25 |
| Cc1nc2c(sc3nc4c(cc32)COC(C)(C)C4)c(=O)n1CCN1CCOCC1 [Compound 231, 3,8,8-Trimethyl-2-(2-morpholin-4-yl-ethyl)-8,9-dihydro-2H,6H-7-oxa-11-thia-2,4,10-triaza-benzo[b]fluoren-1-one] | > 25 |
| CC1(C)CC(=O)c2cc3c(N)c(C(=O)NCc4ccco4)sc3nc2C1 [Compound 95, 3-Amino-7,7-dimethyl-5-oxo-5,6,7,8-tetrahydro-thieno[2,3-b]quinoline-2-carboxylic acid (furan-2-ylmethyl)-amide] | 5 to 25 |
| Cc1cccc(NC(=O)c2sc3nc4c(cc3c2N)CCC4)c1C [Compound 179, 3-Amino-6,7-dihydro-5H-cyclopenta[b]thieno[3,2-e]pyridine-2-carboxylic acid (2,3-dimethyl-phenyl)-amide] | > 25 |
| CCN(CC)C(=O)c1sc2nc3c(cc2c1N)CCC3 [Compound 138, 3-Amino-6,7-dihydro-5H-cyclopenta[b]thieno[3,2-e]pyridine-2-carboxylic acid diethylamide] | > 25 |
| COCc1cc(C)nc2sc(C(=O)Nc3cccc(C(F)(F)F)c3)c(N)c12 [Compound 98, 3-Amino-4-methoxymethyl-6-methyl-thieno[2,3-b]pyridine-2-carboxylic acid (3-trifluoromethyl-phenyl)-amide] | 5 to 25 |

same assay, conditions: Dengue virus; Vero cells, MOI 0.1, harvested 48 hours post infection; read-out: Activity (EC50 class) against Dengue-2 Virus in Vero cells

| Compound | EC50 [µM] |
| --- | --- |
| CCOc1ccc(-c2c3c(nc4sc(C(=O)Nc5nccs5)c(N)c24)CCCC3)cc1 [Compound 241, 3-Amino-4-(4-ethoxy-phenyl)-5,6,7,8-tetrahydro-thieno[2,3-b]quinoline-2-carboxylic acid thiazol-2-ylamide] | > 25 |
| CN1CCc2nc3sc(C(=O)Nc4ccc(F)c(Cl)c4)c(N)c3cc2C1 [Compound 110, 3-Amino-6-methyl-5,6,7,8-tetrahydro-thieno[2,3-b][1,6]naphthyridine-2-carboxylic acid (3-chloro-4-fluoro-phenyl)-amide] | 5 to 25 |
| COc1ccc(-c2cc(-c3ccccc3)nc3sc(C(=O)Nc4ccccc4)c(N)c23)cc1 [Compound 126, 3-Amino-4-(4-methoxy-phenyl)-6-phenyl-thieno[2,3-b]pyridine-2-carboxylic acid phenylamide] | > 25 |
| Cc1ccccc1-n1cnc2c(sc3nc(N4CCOCC4)c4c(c32)CC(C)(C)OC4)c1=O [Compound 100, 2,2-Dimethyl-5-morpholin-4-yl-9-o-tolyl-1,4-dihydro-2H,9H-3-oxa-7-thia-6,9,11-triaza-benzo[c]fluoren-8-one] | 5 to 25 |
| C=C(C)Cn1cnc2c(sc3nc4c(cc32)COC(C)(C)C4)c1=O [Compound 203, 8,8-Dimethyl-2-(2-methyl-allyl)-8,9-dihydro-2H,6H-7-oxa-11-thia-2,4,10-triaza-benzo[b]fluoren-1-one] | > 25 |
| CN1CCc2nc3sc(C(=O)Nc4cccnc4Cl)c(N)c3cc2C1 [Compound 46, 3-Amino-6-methyl-5,6,7,8-tetrahydro-thieno[2,3-b][1,6]naphthyridine-2-carboxylic acid (2-chloro-pyridin-3-yl)-amide] | < 5 |
| COc1ccccc1-c1cc(-c2ccccc2)c2c(N)c(C(=O)NC3CC3)sc2n1 [Compound 67, 3-Amino-6-(2-methoxy-phenyl)-4-phenyl-thieno[2,3-b]pyridine-2-carboxylic acid cyclopropylamide] | 5 to 25 |
| CN1CCc2nc3sc(C(=O)Nc4ccc(F)cc4F)c(N)c3cc2C1 [Compound 111, 3-Amino-6-methyl-5,6,7,8-tetrahydro-thieno[2,3-b][1,6]naphthyridine-2-carboxylic acid (2,4-difluoro-phenyl)-amide] | 5 to 25 |
| Cc1cc(NC(=O)c2sc3nc(C)c(C)c(C)c3c2N)no1 [Compound 255, 3-Amino-4,5,6-trimethyl-thieno[2,3-b]pyridine-2-carboxylic acid (5-methyl-isoxazol-3-yl)-amide] | > 25 |
| CCc1c2c(nc3sc(C(=O)N4CCOCC4)c(N)c13)CC(C)(C)CC2=O [Compound 208, 3-Amino-4-ethyl-7,7-dimethyl-2-(morpholine-4-carbonyl)-7,8-dihydro-6H-thieno[2,3-b]quinolin-5-one] | > 25 |
| CCOC(=O)c1cc(NC(=O)c2sc3nc(C)cc(COC)c3c2N)ccc1Cl [Compound 240, 5-[(3-Amino-4-methoxymethyl-6-methyl-thieno[2,3-b]pyridine-2-carbonyl)-amino]-2-chloro-benzoic acid ethyl ester] | > 25 |
| Cc1ccc(-c2c3c(nc4sc(C(N)=O)c(N)c24)CCCCC3)cc1 [Compound 220, 3-Amino-4-p-tolyl-6,7,8,9-tetrahydro-5H-1-thia-10-aza-cyclohepta[f]indene-2-carboxylic acid amide] | > 25 |
| Cc1cc(F)ccc1NC(=O)c1sc2nc3c(cc2c1N)CN(C)CC3 [Compound 265, 3-Amino-6-methyl-5,6,7,8-tetrahydro-thieno[2,3-b][1,6]naphthyridine-2-carboxylic acid (4-fluoro-2-methyl-phenyl)-amide] | > 25 |

same assay, conditions: viral yield assay, Vero cells, MOI 0.1, 48 hours post infection; read-out: Activity (EC50 in μM) DENV-2

| Compound | EC50 [µM] |
| --- | --- |
| N-(1-adamantyl)-3-amino-6-(2-thienyl) thieno[2,3-b]pyridine-2-carboxamide [Compound 426] | < 5 |
